# Data as given in patent publication US20240219374A1, “A Triple Co-Culture System for Drug Screening of Patient-Derived Cancer Cells and Methods of Use” (OncoPrecision Corporation, priority 2021, published 2024).
# Key:
# [1] = test system: SC cells; assay: Magnetically printed 3D tumoroid triple co-culture, flow cytometry: SC cells; type: cell-based; conditions: 3D tumoroids; Cytarabine 200 nM; 6 days
# Description: (§1) The 3D tumoroid was formed with or without extracellular matrix (ECM) embedded in culture media. […] On day 1, when the tumoroids were in a fully compact 3D configuration, the multiwell plates containing the tumoroid replicas (1 per well) were subjected to a matrix of treatments, including mono-drugs and combinations.
# (§2) Magnetically printed 3D patient-micro-avatars (PMAs) using PDCs from an AML patient were prepared. PDCs from a bone marrow aspirate were processed by Ficoll-Paque to isolate the PBMC fraction, which was printed into 3D tumoroids in co-culture with SC cells and TC cells. Particularly, 10,000 PDC cells were mixed with 3,000 SC cells, and 8,000 TC cells.
# (§3) 3D tumoroids so formed were treated for 6 days with vehicle or Cytarabine at 200 nM. […] At the end of the treatment, tumoroids were analyzed first by florescence microscopy (left panel of FIG. 12B). The tumoroids were subsequentially disaggregated mechanically and analyzed by flow cytometry to quantify the surviving fraction of PDCs, SC cells, and TC cells (right panel of FIG. 12B).
# [2] = test system: TC cells; assay: Magnetically printed 3D tumoroid triple co-culture, flow cytometry: TC cells; type: cell-based; conditions: 3D tumoroids; Cytarabine 200 nM; 6 days
# Description: as §1, §2, §3
# [3] = test system: PDCs from an AML patient; assay: Magnetically printed 3D tumoroid triple co-culture, flow cytometry: PDCs; type: cell-based, human; conditions: 3D tumoroids; Cytarabine 200 nM; 6 days; 10,000 PDC, 3,000 SC, 8,000 TC cells
# Description: as §1, §2, §3
# [4] = test system: TC cells (human bone marrow stroma cell line HS-5, Cayenne-RFP); assay: Triple co-culture drug test (DART), flow cytometry: Tox Control cells; type: cell-based; conditions: for cytotoxic effect on the TC cells: Example 8, FIG. 9A, Panobinostat 5 nM, Cytarabine 22 nM + Daunorubicine 41 nM, Venetoclax 1.6 μM
# Source text: DMSO treated wells were used as controls.
# [5] = test system: PDC cells from patient OP #23 (acute myeloid leukemia); assay: Triple co-culture drug test (DART), flow cytometry: PDC cells of patient OP #23; conditions: for cytotoxic effect on the PDC cells: Example 8, FIG. 9A, 6 days, Panobinostat 5 nM, Cytarabine 22 nM + Daunorubicine 41 nM, Venetoclax 1.6 μM, PDC:SC:TC 10:1:1
compound,measurement,setting,value
"Nc1ccn([C@@H]2O[C@H](CO)[C@@H](O)[C@@H]2O)c(=O)n1 [cytarabine, Cytarabine]",cytotoxic effects on the SC cells,[1],strong cytotoxic effects
same,cytotoxicity on the TC cells,[2],moderate cytotoxicity
same,cytotoxic effects on the cancer cells (PDCs),[3],strong cytotoxic effects
Cc1[nH]c2ccccc2c1CCNCc1ccc(/C=C/C(=O)NO)cc1 [Panobinostat],cytotoxic effect on the TC cells,[4]; 6 days,neither the PDC cells nor the TC cells showed a response
same,cytotoxic effect on the PDC cells,[5],neither the PDC cells nor the TC cells showed a response
CC1(C)CCC(CN2CCN(c3ccc(C(=O)NS(=O)(=O)c4ccc(NCC5CCOCC5)c([N+](=O)[O-])c4)c(Oc4cnc5[nH]ccc5c4)c3)CC2)=C(c2ccc(Cl)cc2)C1 [Venetoclax],cytotoxic effect on the TC cells,[4]; 6 days,no cytotoxic effect
same,cytotoxic activity on the TC cells,"[4]; Example 9, FIG. 9C, four doses, 6 days",no cytotoxic activity
same,effects on the TC cells,"[4]; Example 12, FIG. 11B",exerted effects
same,cytotoxic effect on the PDC cells,[5],strong cytotoxic effect
same,cytotoxic effects on the PDC cells,"[5]; Example 12, FIG. 11B, top drugs alone or combined at the lowest dose, standard care in parallel",cytotoxic effects
